Data taken from patent US9012200B2, “Composition of bacterial strains, bioremediation mixture and use of this composition for the removal of contaminants from the soil and the method for purifying the soil contaminants” (priority 2012, dated 2015).
Read-outs that look alike come from different tables or passages of the source.

Experiments:
[1] = system: Brevundimonas sp. strain 6N; type: cell-based
[2] = system: Stenotrophomonas sp. strain 5L; type: cell-based
[3] = system: Arthrobacter sp. strain 1N; type: cell-based
[4] = system: model strain Escherichia coli; conditions: according to Spain, 2003; cited from earlier work
[5] = system: Stenotrophomonas sp. strain 6L; type: cell-based
[6] = system: Pseudomonas sp. strain 4G; type: cell-based
[7] = system: Brevundimonas sp. strain 5N; type: cell-based
[8] = system: Pseudomonas sp. strain 3G; type: cell-based
[9] = system: Achromobacter sp. strain 4P; type: cell-based
[10] = system: Stenotrophomonas sp. strain 2L; type: cell-based
[11] = system: Brevundimonas sp. strain 2N; type: cell-based
[12] = system: Stenotrophomonas sp. strain 3N; type: cell-based
[13] = system: investigated strains of bacteria; type: cell-based

Q: What does the source list for `[Cl][Ni][Cl]` [Ni(II), Nickel chloride]?
A: MIC threshold values of heavy metals ([1]; strain 6N, 24 h): 1 mM/L; MIC threshold values of heavy metals ([1]; strain 6N, 48 h): 2 mM/L; MIC threshold values of heavy metals ([2]; strain 5L, 24 h): 1 mM/L; MIC threshold values of heavy metals ([3]; strain 1N, 24 h): 1 mM/L; MIC threshold values of heavy metals ([3]; strain 1N, 48 h): 2 mM/L; MIC [4]: 1 mM/L; MIC threshold values of heavy metals ([5]; strain 6L, 24 h): 1 mM/L; MIC threshold values of heavy metals ([5]; strain 6L, 48 h): 2 mM/L; MIC threshold values of heavy metals ([6]; 24 h): 1 mM/L; MIC threshold values of heavy metals ([6]; 48 h): 2 mM/L; MIC threshold values of heavy metals ([7]; strain 5N, 24 h): 1 mM/L; MIC threshold values of heavy metals ([8]; 24 h): 1 mM/L; MIC threshold values of heavy metals ([8]; 48 h): 2 mM/L; MIC threshold values of heavy metals ([9]; strain 4P, 24 h): 1 mM/L; MIC threshold values of heavy metals ([10]; strain 2L, 24 h): 1 mM/L; MIC threshold values of heavy metals ([11]; strain 2N, 24 h): 1 mM/L; MIC threshold values of heavy metals ([11]; strain 2N, 48 h): 2 mM/L; MIC threshold values of heavy metals ([12]; strain 3N, 24 h): 1 mM/L; MIC threshold values of heavy metals ([12]; strain 3N, 48 h): 2 mM/L; Susceptibility of the investigated strains to the heavy metal ([13]; compared with literature data for the model strain): semi-susceptible

Q: For `O=S(=O)([O-])[O-].[Zn+2]` [Zn(II), Zinc sulphate], which “MIC threshold values of heavy metals” value [1] is on record?
A: 2(3) mM/L

Q: What about the “MIC threshold values of heavy metals” value [2] of the same compound?
A: 4(5) mM/L

Q: What about the “MIC threshold values of heavy metals” value [3] of the same compound?
A: 4 mM/L

Q: And the MIC [4]?
A: 1 mM/L

Q: And the “MIC threshold values of heavy metals” value [5]?
A: 4(5) mM/L

Q: And the “MIC threshold values of heavy metals” value ([6]; 24 h)?
A: 4 mM/L

Q: What about the “MIC threshold values of heavy metals” value [7] of the same compound?
A: 2(4) mM/L

Q: And the “MIC threshold values of heavy metals” value ([8]; 24 h)?
A: 4 mM/L

Q: What about the “MIC threshold values of heavy metals” value [9] of the same compound?
A: 3(5) mM/L

Q: And the “MIC threshold values of heavy metals” value [10]?
A: 3(4) mM/L

Q: And the “MIC threshold values of heavy metals” value [11]?
A: 3(4) mM/L

Q: What about the “MIC threshold values of heavy metals” value [12] of the same compound?
A: 3(4) mM/L

Q: What about the “Susceptibility of the investigated strains to the heavy metal” value (“Susceptibility” below) [13] of the same compound?
A: resistant

Q: With `O=S(=O)([O-])[O-].[Cu+2]` [Cu(II), Copper sulphate] as the compound, how does the “MIC threshold values of heavy metals” value [1] read?
A: 3(4) mM/L

Q: And the “MIC threshold values of heavy metals” value [2]?
A: 3 mM/L

Q: What about the “MIC threshold values of heavy metals” value [3] of the same compound?
A: 3 mM/L

Q: What about the MIC [4] of the same compound?
A: 1 mM/L

Q: What about the “MIC threshold values of heavy metals” value [5] of the same compound?
A: 3(4) mM/L

Q: What about the “MIC threshold values of heavy metals” value ([6]; 24 h) of the same compound?
A: 3 mM/L

Q: And the “MIC threshold values of heavy metals” value ([6]; 48 h)?
A: 4 mM/L

Q: And the “MIC threshold values of heavy metals” value [7]?
A: 3(4) mM/L

Q: What about the “MIC threshold values of heavy metals” value ([8]; 24 h) of the same compound?
A: 3 mM/L

Q: And the “MIC threshold values of heavy metals” value [9]?
A: 3 mM/L

Q: And the “MIC threshold values of heavy metals” value [10]?
A: 3 mM/L

Q: And the “MIC threshold values of heavy metals” value [11]?
A: 3(4) mM/L

Q: And the “MIC threshold values of heavy metals” value [12]?
A: 3(4) mM/L

Q: What about the “Susceptibility” value [13] of the same compound?
A: resistant

Q: Which “MIC threshold values of heavy metals” value [1] does the source give for Sodium arsenite [As (III)] here?
A: 4(7) mM/L

Q: And the “MIC threshold values of heavy metals” value [2]?
A: 5(7) mM/L

Q: And the “MIC threshold values of heavy metals” value [3]?
A: 5(8) mM/L

Q: What about the MIC [4] of the same compound?
A: 0.5 mM/L

Q: What about the “MIC threshold values of heavy metals” value [5] of the same compound?
A: 5(7) mM/L

Q: And the “MIC threshold values of heavy metals” value ([6]; 24 h)?
A: 5 mM/L

Q: What about the “MIC threshold values of heavy metals” value ([6]; 48 h) of the same compound?
A: 8 mM/L

Q: And the “MIC threshold values of heavy metals” value [7]?
A: 4(7) mM/L

Q: And the “MIC threshold values of heavy metals” value ([8]; 24 h)?
A: 5 mM/L

Q: What about the “MIC threshold values of heavy metals” value [9] of the same compound?
A: 5(6) mM/L

Q: What about the “MIC threshold values of heavy metals” value [10] of the same compound?
A: 4(6) mM/L

Q: And the “MIC threshold values of heavy metals” value [11]?
A: 5(7) mM/L

Q: What about the “MIC threshold values of heavy metals” value [12] of the same compound?
A: 3(5) mM/L

Q: And the “Susceptibility” value [13]?
A: resistant

Q: Which results are given for `O=S(=O)([O-])[O-].[Cd+2]` [Cd(II), Cadmium sulphate]?
A: MIC threshold values of heavy metals [1]: 0.1 mM/L; MIC threshold values of heavy metals [2]: 0.1 mM/L; MIC threshold values of heavy metals [3]: 0.1 mM/L; MIC [4]: 0.5 mM/L; MIC threshold values of heavy metals [5]: 0.1 mM/L; MIC threshold values of heavy metals ([6]; 24 h): 0.1 mM/L; MIC threshold values of heavy metals [7]: 0.1(0.2) mM/L; MIC threshold values of heavy metals ([8]; 24 h): 0.1 mM/L; MIC threshold values of heavy metals [9]: 0.1(0.2) mM/L; MIC threshold values of heavy metals [10]: 0.1 mM/L; MIC threshold values of heavy metals [11]: 0.1 mM/L; MIC threshold values of heavy metals [12]: 0.1 mM/L; Growth of the strains in the presence of the metal salt [13]: None of the investigated strains was able to grow; Susceptibility of the investigated strains to the heavy metal [13]: susceptible
